Assays:
[1] = tested on: B16F10 lung metastases; assay: B16F10 lung metastases after intratumoral treatment of the subcutaneous tumor; format: in vivo, C57BL/6 mice; details: 20 μg intratumoral
Text: Activation of the STING pathway promotes antigen presentation and induces a durable T-cell response, as shown in Examples 11 and 12. Thus, the immune memory response induced by EXOSTING™ may be sufficient to prevent tumor metastasis after a local administration in a primary tumor. To test this hypothesis, exosomes purified from HEK293SF cells overexpressing PTGFRN were loaded with the cyclic dinucleotide 3-3 cAIMPdFSH as described in Example 1. C57BL/6 mice were inoculated subcutaneously with 1×10^6 B16F10 melanoma cells on day zero and challenged with an additional tail vein injection of 1×10^5 B16F10 melanoma cells to seed lung metastases (n=8 mice per group). Five, eight, and eleven days post-inoculation the mice were injected intratumorally at the subcutaneous tumor with PBS, 20 μg 3-3 cAIMPdFSH, 120 ng 3-3 cAIMPdFSH, or either 120 ng, 12 ng, or 1.2 ng 3-3 cAIMPdFSH loaded in PTGFRN-overexpressing exosomes (Exo STING Agonist). […] Lungs from all mice were harvested, imaged, and counted for metastases. […] As little as 12 ng of Exo STING Agonist prevented lung metastasis to the same extent as 20 μg STING Agonist (FIGS. 46B and 47).

[2] = tested on: CT26.CL25 cells; assay: CT26.CL25 colorectal tumor growth; format: in vivo, BALB/c mice; details: 0.012 μg free, days 13, 16, 19
Method: To test and expand in vivo efficacy to other types of tumors, BALB/c mice were inoculated subcutaneously with 5×10^5 CT26.CL25 cells (ATCC®; CRL-2639™), a murine colorectal cancer cell line engineered to stably express beta-galactosidase, or 5×10^5 CT26.WT cells (ATCC®; CRL-2638™) (n=5-7 mice per group). Thirteen, sixteen, and nineteen days post-inoculation the mice were injected intratumorally into CT26.CL25 tumor with exosomes, 0.012 μg of free 3-3 cAIMPdFSH, or 0.012 μg-3 cAIMPdFSH loaded in PTGFRN-overexpressing exosomes and into CT26.WT tumor with PBS, exosomes, 100 μg of free ML RR-S2 CDA, or 0.2 μg-3 cAIMPdFSH loaded in PTGFRN-overexpressing exosomes.

[3] = tested on: B16F10 murine melanoma cells; assay: B16F10 primary tumor and re-challenge, durable T cell responses; format: in vivo, C57BL/6 mice
Method: Six, nine, and twelve days post-inoculation, the tumors were injected intratumorally with PBS, exosomes, 100 μg of free ML RR-S2 CDA, or 0.2 μg 3-3 cAIMPdFSH loaded in PTGFRN-overexpressing exosomes. […] Five additional naïve mice were inoculated with the same tumor cell preparation and treated daily with PBS to ensure cell viability and growth kinetics. By day 37 (17 days post-challenge) all mice in the PBS group were sacrificed.

[4] = tested on: A20 lymphoma cells; assay: CIVO intratumoral microinjection, IFNβ mRNA by in situ hybridization; format: in vivo, BALB/cAnNHsd mice; details: high dose free (printed 2 g), four hours post-injection
Method: All experiments in mice were approved by IACUC Board of Presage Biosciences, Seattle, Wash. (Protocol number PR-001) and were performed at Presage in accordance with relevant guidelines and regulations. All relevant procedures were performed under anesthesia and all efforts were made to minimize pain and suffering. Female BALB/cAnNHsd mice (Envigo) with an average weight of 18 gm were used for experiments at 5-7 weeks of age. For generating A20 allografts, mice were inoculated with 1 million A20 cells in 100 μl inoculation volume.
CIVO intra-tumoral microinjections were performed as described in Klinghoffer et al. (2016) Science Translational Medicine. Briefly, mice (n=6 per time point, 4 and 24 hours) were enrolled in microinjection studies when implanted tumors reached the following approximate dimensions: 14 mm (length), 10 mm (width) and 7 mm (depth). […]
Images of every cell from each tissue section stained were captured by digital, automated, high-resolution whole-tissue scanning (3D Histech Panoramic 250 Flash). Tumor responses were quantified from image files from each tissue section using Presage's custom CIVO Analyzer image analysis platform. […] In order to mitigate the influence of pre-existing necrosis on biomarker measurements, injection sites that fall within largely acellular tumor regions are excluded prior to quantitative analysis. […]

Compound | lung lesions by histology [1] | lung metastases compared to PBS [1] | tumor growth compared to control [2] | animals in which re-challenge tumor growth was not inhibited ([3]; 100 μg free group, re-challenged day 20, read day 37) | animals that showed complete response (primary tumor) ([3]; 100 μg free, intratumoral days 6, 9, 12) | IFNβ mRNA levels [4]
Nc1ncnc2c1ncn2[C@@H]1O[C@@H]2COP(=O)(S)O[C@H]3[C@@H](F)[C@H](n4cnc5c(=O)[nH]cnc54)O[C@@H]3COP(O)(=S)O[C@H]2[C@H]1F (stereo partly drawn) [3-3 cAIMPdFSH, 3′3′-cAIMPdFSH] | significant amount of lung lesions inside of lung | dramatically reduced | moderately attenuated tumor growth | – | – | –
Nc1ncnc2c1ncn2[C@@H]1O[C@@H]2COP(O)(=S)O[C@@H]3C(O)[C@@H](COP(O)(=S)O[C@H]2[C@H]1O)O[C@H]3n1cnc2c(N)ncnc21 (stereo partly drawn) [ML RR-S2 CDA] | – | – | – | 10 out of 10 | ten | comparable between the high dose STING agonist and the PTGFRN O/E EXOSTING™ groups
